We go through 3 molecules from US9757320B2, “Oral care composition” (Colgate-Palmolive Company, priority 2012, dated 2017).

One series deals with A. viscuosus. In words: Minimum inhibitory concentration test: optical density at 610 nm of A. viscuosus in tryptic soy broth, 96 well plate. It counts as cell-based. The conditions noted are these: 37° C. for 18 hours. How it is done: Stock solutions of the zinc ascorbyl phosphate of Example 1, ascorbyl phosphate, zinc oxide, and the zinc-lysine complex were each prepared in water. The concentration of active ingredient in each solution was 0.1 M. Aliquots of each test solution (200 μL) were placed in the first row of a 96 well plate. Serial dilutions of the stock solutions were prepared on the plate by mixing the stock solutions with tryptic soy broth on a 1:1 basis. The concentrations of active ingredient prepared on this basis varied from 50 mM to 0.00488 mM.
A solution of A. viscuosus with an optical density of 0.2 at 610 nm was prepared. Aliquots of the A. viscuosus solution (100 μL) were then added to each test well. Four control wells containing TSB buffer and A. viscuosus solution were prepared. Four blank wells containing TSB buffer alone were also prepared.
The plate was then incubated at 37° C. for 18 hours. The optical density of each well at 610 nm was then recorded using a plate reader.

For series [1] the following is noted: cited from earlier work.
The mark [2] stands for this setting: 50 mM active ingredient, lower reading = improved antibacterial effect.

In the case of `CCCCCCCCCCCCCCCC(=O)OC[C@H](O)[C@H]1OC(=O)C(O)=C1O` [Ascorbyl Palmitate], the optical density reading in the series with A. viscuosus (0.005 mM active ingredient) was found to be 0.70; in the series on A. viscuosus (0.00977 mM active ingredient), 0.71; in the series on A. viscuosus (0.195 mM active ingredient), 0.71; with A. viscuosus (0.391 mM active ingredient), 0.69; with A. viscuosus (0.781 mM active ingredient) it was 0.70; in the series on A. viscuosus (1.563 mM active ingredient), 0.70. Moreover, the optical density reading was found to be 0.68 in the series on A. viscuosus (3.125 mM active ingredient); 0.69 with A. viscuosus (6.25 mM active ingredient); 0.72 in the series with A. viscuosus (12.5 mM active ingredient); 0.68 with A. viscuosus (25 mM active ingredient); 0.64 with A. viscuosus (setting [2]).

On to `[O]=[Zn]` [Zinc Oxide, zinc oxide], for which, in series [1], the “solubility under aqueous conditions” value was “poorly soluble”. Moreover, the optical density reading with A. viscuosus (0.005 mM active ingredient) was 0.68; in the series on A. viscuosus (0.00977 mM active ingredient) it was 0.68; in the series with A. viscuosus (0.195 mM active ingredient), 0.67; in the series on A. viscuosus (0.391 mM active ingredient) it was 0.66; in the series on A. viscuosus (0.781 mM active ingredient), 0.60; in the series on A. viscuosus (1.563 mM active ingredient), 0.45. The optical density reading amounted to 0.33 in the series with A. viscuosus (3.125 mM active ingredient); 0.29 in the series with A. viscuosus (6.25 mM active ingredient); 0.40 with A. viscuosus (12.5 mM active ingredient); 0.65 in the series on A. viscuosus (25 mM active ingredient); 1.55 with A. viscuosus (setting [2]).

zinc-lysine complex: the optical density reading turned out to be 0.68 in the series on A. viscuosus (0.005 mM active ingredient); 0.71 in the series on A. viscuosus (0.00977 mM active ingredient); 0.69 in the series on A. viscuosus (0.195 mM active ingredient); 0.65 with A. viscuosus (0.391 mM active ingredient); 0.58 in the series on A. viscuosus (0.781 mM active ingredient); 0.44 with A. viscuosus (1.563 mM active ingredient). Further, the optical density reading with A. viscuosus (3.125 mM active ingredient) came out at 0.34; in the series with A. viscuosus (6.25 mM active ingredient) it was 0.15; with A. viscuosus (12.5 mM active ingredient) it was 0.20; in the series on A. viscuosus (25 mM active ingredient) it was 0.35; in the series with A. viscuosus (setting [2]), 0.56.
